Test results taken from patent US12180207B2 (ARRAY BIOPHARMA INC., priority 2018, dated 2024).

Target: HEK-293 cells transfected with dox-inducible human wild type FGFR1 (Homo sapiens (Human), UniProt P11362)
Test: FGFR1 pFGFR cell assay (ELISA)
Format: cell-based
Details: HEK-293 dox-inducible FGFR1, 1 hour compound
Experimental: FGFR1 pFGFR Cell Assay: • HEK-293 cells transfected with dox-inducible human wild type FGFR1 (SEQ ID NO: 1) were plated in a collagen or poly-D-lysine coated 96 well flat bottom plates at 4×10^5 cells/well in complete DMEM medium containing 10% FBS and 1 μg/ml doxycycline and allowed to attach for 24 h at 37° C., 5% CO2. Cells were treated with compound using 1:3 serial dilutions with a maximum final concentration of 5 μM. Compound was incubated on cells for 1 hour at 37° C., 5% CO2. Medium was removed, and cells were lysed with lysis buffer containing phosphatase and protease inhibitors. Phospho FGFR1 was measured by ELISA (R&D Systems cat. no. DYC5079 or Cell Signaling Technology cat. no. 12909). The ELISA captures total FGFR1 and detects total phospho tyrosine. Optical density was measured for each well using a Versamax reader at a wavelength of 450 nm. 100 POC was determined using no test compounds and 0 POC was determined using a control compound. The POC values were fit to a 4-parameter logistic curve as a function of the concentration of the compound, and the IC50 value is the point where the curve crosses 50 POC.

Sequence of HEK-293 cells transfected with dox-inducible human wild type FGFR1 (P11362 22-822): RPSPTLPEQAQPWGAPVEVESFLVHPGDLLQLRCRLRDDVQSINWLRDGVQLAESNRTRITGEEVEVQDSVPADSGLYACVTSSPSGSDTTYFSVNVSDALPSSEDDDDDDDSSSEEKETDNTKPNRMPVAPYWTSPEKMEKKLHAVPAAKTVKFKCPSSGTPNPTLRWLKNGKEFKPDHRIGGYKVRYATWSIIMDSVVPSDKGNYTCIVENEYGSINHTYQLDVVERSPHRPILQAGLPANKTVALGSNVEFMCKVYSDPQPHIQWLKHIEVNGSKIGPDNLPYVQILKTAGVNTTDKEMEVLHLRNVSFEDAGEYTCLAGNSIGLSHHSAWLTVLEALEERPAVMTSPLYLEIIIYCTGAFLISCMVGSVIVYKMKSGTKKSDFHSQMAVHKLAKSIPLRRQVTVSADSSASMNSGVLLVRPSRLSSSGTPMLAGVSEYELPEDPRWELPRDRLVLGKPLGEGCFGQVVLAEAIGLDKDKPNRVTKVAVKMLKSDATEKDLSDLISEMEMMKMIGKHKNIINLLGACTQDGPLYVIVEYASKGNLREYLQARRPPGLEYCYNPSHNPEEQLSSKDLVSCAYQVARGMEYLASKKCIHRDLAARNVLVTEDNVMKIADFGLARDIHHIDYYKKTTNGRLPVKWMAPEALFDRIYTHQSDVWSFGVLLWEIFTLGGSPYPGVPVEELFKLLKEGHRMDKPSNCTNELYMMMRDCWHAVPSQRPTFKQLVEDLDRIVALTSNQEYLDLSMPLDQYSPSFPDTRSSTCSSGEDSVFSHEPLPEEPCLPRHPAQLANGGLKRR

Question: For `C=CC(=O)Nc1ccc(C(=O)N2CCC(n3cc(-c4cc(OC)c5c(C#N)cnn5c4)cn3)CC2)cc1` [Example 177, N-(4-(4-(4-(3-cyano-4-methoxypyrazolo[1,5-a]pyridin-6-yl)-1H-pyrazol-1-yl)piperidine-1-carbonyl)phenyl)acrylamide], which IC50 is on record?
Answer: Its IC50 is 123 nM.

Target: HEK-293 cells transfected with dox-inducible human wild type FGFR2 (Homo sapiens (Human), UniProt P21802)
Sequence (P21802 22-821): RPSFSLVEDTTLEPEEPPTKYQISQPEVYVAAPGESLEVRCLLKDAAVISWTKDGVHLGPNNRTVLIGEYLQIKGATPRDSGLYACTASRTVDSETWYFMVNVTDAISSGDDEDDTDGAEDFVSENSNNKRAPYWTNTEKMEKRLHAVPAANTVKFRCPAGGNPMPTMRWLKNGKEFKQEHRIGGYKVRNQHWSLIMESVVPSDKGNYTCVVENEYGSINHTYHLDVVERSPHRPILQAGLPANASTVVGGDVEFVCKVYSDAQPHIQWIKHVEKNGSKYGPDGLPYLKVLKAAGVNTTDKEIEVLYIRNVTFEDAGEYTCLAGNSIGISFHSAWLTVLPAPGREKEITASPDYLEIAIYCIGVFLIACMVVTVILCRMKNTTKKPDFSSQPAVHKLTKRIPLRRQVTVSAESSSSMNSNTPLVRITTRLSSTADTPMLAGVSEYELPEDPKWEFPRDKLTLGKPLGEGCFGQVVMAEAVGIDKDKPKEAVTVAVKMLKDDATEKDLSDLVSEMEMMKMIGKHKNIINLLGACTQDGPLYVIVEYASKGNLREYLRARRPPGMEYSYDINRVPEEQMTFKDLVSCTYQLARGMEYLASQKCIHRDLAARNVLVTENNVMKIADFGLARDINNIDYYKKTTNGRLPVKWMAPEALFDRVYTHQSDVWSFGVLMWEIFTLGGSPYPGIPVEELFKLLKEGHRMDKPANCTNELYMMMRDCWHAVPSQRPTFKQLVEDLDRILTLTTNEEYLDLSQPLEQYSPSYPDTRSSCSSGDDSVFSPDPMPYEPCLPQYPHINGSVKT
Test: FGFR2 pFGFR cell assay (ELISA)
Format: cell-based
Details: HEK-293 dox-inducible FGFR2, 1 hour compound, 30 ng/ml FGF-acidic
Experimental: FGFR2 pFGFR Cell Assay: • HEK-293 cells transfected with dox-inducible human wild type FGFR2 (SEQ ID NO: 3) were plated in a collagen or poly-D-lysine coated 96 well flat bottom plates at 4×10^5 cells/well in complete DMEM medium containing 10% FBS and 1 μg/ml doxycycline and allowed to attach for 24 h at 37° C., 5% CO2. Cells were treated with compound using 1:3 serial dilutions with a maximum final concentration of 5 μM. Compound was incubated on cells for 1 hour at 37° C., 5% CO2. Cells were then stimulated with a final concentration of 30 ng/ml human FGF-acidic (R&D Systems Cat number 232-FA/CF) for 5 minutes at 37° C., 5% CO2. Medium was removed and cells were lysed with lysis buffer containing phosphatase and protease inhibitors. Phospho FGFR2 was measured by ELISA (R&D Systems cat. no. DYC684). The ELISA captures total FGFR2 and detects total phospho tyrosine. Optical density was measured for each well using a Versamax reader at a wavelength of 450 nm. 100 POC was determined using no test compounds and 0 POC was determined using a control compound. The POC values were fit to a 4-parameter logistic curve as a function of the concentration of the compound, and the IC50 value is the point where the curve crosses 50 POC.

Question: For `C=CC(=O)N1CC(C(=O)N2CCC(n3cc(-c4cc(OC)c5c(C#N)cnn5c4)cn3)CC2)C1(C)C` (centres unmarked) [Example 43, 6-(1-(1-(1-acryloyl-2,2-dimethylazetidine-3-carbonyl)piperidin-4-yl)-1H-pyrazol-4-yl)-4-methoxypyrazolo[1,5-a]pyridine-3-carbonitrile], which IC50 is on record?
Answer: Its IC50 is 79 nM.

Question: With `C=CC(=O)N1CC(C(=O)N2C3CCC2CN(c2ccc(-c4cc(OC)c5c(C#N)cnn5c4)cn2)C3)C1` [Example 50, 6-(6-(8-(1-acryloylazetidine-3-carbonyl)-3,8-diazabicyclo[3.2.1]octan-3-yl)pyridin-3-yl)-4-methoxypyrazolo[1,5-a]pyridine-3-carbonitrile] as the molecule, how does the IC50 read?
Answer: The IC50 was 178 nM.

Question: How did the IC50 turn out when `C=CC(=O)N1CC(C(=O)N2CC3CCC(C2)N3c2ccc(-c3cc(OC)c4c(C#N)cnn4c3)cn2)C1` [Example 51, 6-(6-(3-(1-acryloylazetidine-3-carbonyl)-3,8-diazabicyclo[3.2.1]octan-8-yl)pyridin-3-yl)-4-methoxypyrazolo[1,5-a]pyridine-3-carbonitrile] was run?
Answer: Its IC50 is 433 nM.

Question: `C=CC(=O)N1CC(C(=O)N2C3CC2CN(c2ccc(-c4cc(OC)c5c(C#N)cnn5c4)cn2)C3)C1` [Example 52, 6-(6-(6-(1-acryloylazetidine-3-carbonyl)-3,6-diazabicyclo[3.1.1]heptan-3-yl)pyridin-3-yl)-4-methoxypyrazolo[1,5-a]pyridine-3-carbonitrile] was tested. Which IC50 did it give?
Answer: The IC50 was 766 nM.

Question: With `C=CC(=O)N1CC(F)(C(=O)N2CCC(n3ncc(-c4cc(OC)c5c(C#N)cnn5c4)c3C)CC2)C1` [Example 85, 6-(1-(1-(1-acryloyl-3-fluoroazetidine-3-carbonyl)piperidin-4-yl)-5-methyl-1H-pyrazol-4-yl)-4-methoxypyrazolo[1,5-a]pyridine-3-carbonitrile] as the molecule, how does the IC50 read?
Answer: The IC50 was 61 nM.

Question: For `C=CC(=O)N1CC(OC)(C(=O)N2CCC(n3ncc(-c4cc(OC)c5c(C#N)cnn5c4)c3C)CC2)C1` [Example 88, 6-(1-(1-(1-acryloyl-3-methoxyazetidine-3-carbonyl)piperidin-4-yl)-5-methyl-1H-pyrazol-4-yl)-4-methoxypyrazolo[1,5-a]pyridine-3-carbonitrile], which IC50 is on record?
Answer: The IC50 was 143 nM.

Question: How did the IC50 turn out when `C=CC(=O)N1CC(CN2CCC(n3ncc(-c4cc(OC)c5c(C#N)cnn5c4)c3C)CC2)C1` [Example 89, 6-(1-(1-((1-acryloylazetidin-3-yl)methyl)piperidin-4-yl)-5-methyl-1H-pyrazol-4-yl)-4-methoxypyrazolo[1,5-a]pyridine-3-carbonitrile] was run?
Answer: Its IC50 is 96 nM.

Question: How did the IC50 turn out when `C=CC(=O)N1CC(C)(CN2CCC(n3ncc(-c4cc(OC)c5c(C#N)cnn5c4)c3C)CC2)C1` [Example 90, 6-(1-(1-((1-acryloyl-3-methylazetidin-3-yl)methyl)piperidin-4-yl)-5-methyl-1H-pyrazol-4-yl)-4-methoxypyrazolo[1,5-a]pyridine-3-carbonitrile] was run?
Answer: The IC50 was 109 nM.

Question: How did the IC50 turn out when `C=CC(=O)N1CC(CN2CCC(n3ncc(-c4cc(OC)c5c(C#N)cnn5c4)c3C)CC2)(OC)C1` [Example 91, 6-(1-(1-((1-acryloyl-3-methoxyazetidin-3-yl)methyl)piperidin-4-yl)-5-methyl-1H-pyrazol-4-yl)-4-methoxypyrazolo[1,5-a]pyridine-3-carbonitrile] was run?
Answer: Its IC50 is 108 nM.

Question: With `C=CS(=O)(=O)Nc1cccc(C(=O)N2CCC(n3cc(-c4cc(OC)c5c(C#N)cnn5c4)cn3)CC2)c1` [Example 188, N-(3-(4-(4-(3-cyano-4-methoxypyrazolo[1,5-a]pyridin-6-yl)-1H-pyrazol-1-yl)piperidine-1-carbonyl)phenyl)eth-enesulfonamide] as the molecule, how does the IC50 read?
Answer: The IC50 was 160 nM.
